ChEMBL document CHEMBL3286379, “Design and synthesis of pyrimidine molecules endowed with thiazolidin-4-one as new anticancer agents” (Eur J Med Chem, 2014)

Legend:
Type in all cases: functional
HL-60(TB) = experiment: Growth inhibition of human HL-60(TB) cells after 48 hrs by sulforhodamine B assay; conditions: HL-60, 48 h
[1] = Growth inhibition of human MOLT4 cells after 48 hrs by sulforhodamine B assay; conditions: MOLT-4, 48 h
SR = experiment: Growth inhibition of human SR cells after 48 hrs by sulforhodamine B assay
A549 = experiment: Growth inhibition of human A549/ATCC cells after 48 hrs by sulforhodamine B assay; conditions: A549, 48 h
HOP-62 = experiment: Growth inhibition of human HOP62 cells after 48 hrs by sulforhodamine B assay; conditions: HOP-62, 48 h
NCI-H23 = experiment: Growth inhibition of human NCI-H23 cells after 48 hrs by sulforhodamine B assay; conditions: NCI-H23, 48 h
[2] = Growth inhibition of human HCT15 cells after 48 hrs by sulforhodamine B assay; conditions: HCT-15, 48 h
KM12 = experiment: Growth inhibition of human KM12 cells after 48 hrs by sulforhodamine B assay; conditions: KM12, 48 h
[3] = Growth inhibition of human SF539 cells after 48 hrs by sulforhodamine B assay; conditions: SF-539, 48 h
[4] = Growth inhibition of human LOXIMVI cells after 48 hrs by sulforhodamine B assay; conditions: LOX IMVI
Malme-3M = experiment: Growth inhibition of human MALME-3M cells after 48 hrs by sulforhodamine B assay
SK-MEL-28 = experiment: Growth inhibition of human SK-MEL-28 cells after 48 hrs by sulforhodamine B assay; conditions: SK-MEL-28, 48 h
[5] = Growth inhibition of human UACC257 cells after 48 hrs by sulforhodamine B assay; conditions: UACC-257, 48 h
[6] = Growth inhibition of human OVCAR5 cells after 48 hrs by sulforhodamine B assay; conditions: OVCAR-5, 48 h
A498 = experiment: Growth inhibition of human A498 cells after 48 hrs by sulforhodamine B assay; conditions: A498, 48 h
CAKI-1 = experiment: Growth inhibition of human CAKI-1 cells after 48 hrs by sulforhodamine B assay; conditions: CAKI-1, 48 h
SN12C = experiment: Growth inhibition of human SN12C cells after 48 hrs by sulforhodamine B assay
TK-10 = experiment: Growth inhibition of human TK10 cells after 48 hrs by sulforhodamine B assay; conditions: TK-10, 48 h
[7] = Growth inhibition of human UO31 cells after 48 hrs by sulforhodamine B assay; conditions: UO-31, 48 h
MCF7 = experiment: Growth inhibition of human MCF7 cells after 48 hrs by sulforhodamine B assay; conditions: MCF7, 48 h
[8] = read-out: LC50 (the source's name)
[9] = read-out: pLC50 (the source's name) (converted)

Nc1nc(-c2ccccc2Cl)cc(-c2ccc(Cl)cc2Cl)n1
GI50 (HL-60(TB); read-out: GI50): 3.14 µM
CC50 (HL-60(TB); [8]): > 100 µM
TGI (HL-60(TB); read-out: TGI): 17.3 µM
GI50 (HL-60(TB); read-out: pGI50 (converted)): 3.16 µM
CC50 (HL-60(TB); [9]): > 100 µM
TGI (HL-60(TB); read-out: pTGI (converted)): 17.4 µM
GI50 ([1]; read-out: GI50): 4.82 µM
CC50 [1, 8]: > 100 µM
TGI ([1]; read-out: TGI): > 100 µM
GI50 ([1]; read-out: pGI50 (converted)): 4.79 µM
CC50 [1, 9]: > 100 µM
TGI ([1]; read-out: pTGI): > 100 µM
GI50 (SR; read-out: GI50): 4.1 µM
CC50 (SR; [8]): > 100 µM
TGI (SR; read-out: TGI): > 100 µM
GI50 (SR; read-out: pGI50 (converted)): 4.07 µM
CC50 (SR; [9]): > 100 µM
TGI (SR; read-out: pTGI): > 100 µM
GI50 (A549; read-out: GI50): 4.81 µM
CC50 (A549; [8]): > 100 µM
TGI (A549; read-out: TGI): > 100 µM
GI50 (A549; read-out: pGI50 (converted)): 4.79 µM
CC50 (A549; [9]): > 100 µM
TGI (A549; read-out: pTGI): > 100 µM
GI50 (HOP-62; read-out: GI50): 8.21 µM
CC50 (HOP-62; [8]): > 100 µM
TGI (HOP-62; read-out: TGI): > 100 µM
GI50 (HOP-62; read-out: pGI50 (converted)): 8.13 µM
CC50 (HOP-62; [9]): > 100 µM
TGI (HOP-62; read-out: pTGI): > 100 µM
GI50 (NCI-H23; read-out: GI50): 12.3 µM
CC50 (NCI-H23; [8]): > 100 µM
TGI (NCI-H23; read-out: TGI): > 100 µM
GI50 (NCI-H23; read-out: pGI50 (converted)): 12.3 µM
CC50 (NCI-H23; [9]): > 100 µM
TGI (NCI-H23; read-out: pTGI): > 100 µM
GI50 ([2]; read-out: GI50): 5.09 µM
CC50 [2, 8]: > 100 µM
TGI ([2]; read-out: TGI): > 100 µM
GI50 ([2]; read-out: pGI50 (converted)): 5.13 µM
CC50 [2, 9]: > 100 µM
TGI ([2]; read-out: pTGI): > 100 µM
GI50 (KM12; read-out: GI50): 4.1 µM
CC50 (KM12; [8]): > 100 µM
TGI (KM12; read-out: TGI): 31.3 µM
GI50 (KM12; read-out: pGI50 (converted)): 4.07 µM
CC50 (KM12; [9]): > 100 µM
TGI (KM12; read-out: pTGI (converted)): 30.9 µM
GI50 ([3]; read-out: GI50): 7.39 µM
CC50 [3, 8]: > 100 µM
TGI ([3]; read-out: TGI): 67 µM
GI50 ([3]; read-out: pGI50 (converted)): 7.41 µM
CC50 [3, 9]: > 100 µM
TGI ([3]; read-out: pTGI (converted)): 67.6 µM
GI50 ([4]; read-out: GI50): 4.89 µM
CC50 [4, 8]: > 100 µM
TGI ([4]; read-out: TGI): > 100 µM
GI50 ([4]; read-out: pGI50 (converted)): 4.9 µM
CC50 [4, 9]: > 100 µM
TGI ([4]; read-out: pTGI): > 100 µM
GI50 (Malme-3M; read-out: GI50): 17.7 µM
CC50 (Malme-3M; [8]): > 100 µM
TGI (Malme-3M; read-out: TGI): > 100 µM
GI50 (Malme-3M; read-out: pGI50 (converted)): 17.8 µM
CC50 (Malme-3M; [9]): > 100 µM
TGI (Malme-3M; read-out: pTGI): > 100 µM
GI50 (SK-MEL-28; read-out: GI50): 20.9 µM
CC50 (SK-MEL-28; [8]): > 100 µM
TGI (SK-MEL-28; read-out: TGI): > 100 µM
GI50 (SK-MEL-28; read-out: pGI50 (converted)): 20.9 µM
CC50 (SK-MEL-28; [9]): > 100 µM
TGI (SK-MEL-28; read-out: pTGI): > 100 µM
GI50 ([5]; read-out: GI50): 11.9 µM
CC50 [5, 8]: > 100 µM
TGI ([5]; read-out: TGI): 55.2 µM
GI50 ([5]; read-out: pGI50 (converted)): 11.7 µM
CC50 [5, 9]: > 100 µM
TGI ([5]; read-out: pTGI (converted)): 55 µM
GI50 ([6]; read-out: GI50): 8.09 µM
CC50 [6, 8]: > 100 µM
TGI ([6]; read-out: TGI): > 100 µM
GI50 ([6]; read-out: pGI50 (converted)): 8.13 µM
CC50 [6, 9]: > 100 µM
TGI ([6]; read-out: pTGI): > 100 µM
GI50 (A498; read-out: GI50): 3.34 µM
CC50 (A498; [8]): > 100 µM
TGI (A498; read-out: TGI): 22.8 µM
GI50 (A498; read-out: pGI50 (converted)): 3.31 µM
CC50 (A498; [9]): > 100 µM
TGI (A498; read-out: pTGI (converted)): 22.9 µM
GI50 (CAKI-1; read-out: GI50): 9.27 µM
CC50 (CAKI-1; [8]): > 100 µM
TGI (CAKI-1; read-out: TGI): > 100 µM
GI50 (CAKI-1; read-out: pGI50 (converted)): 9.33 µM
CC50 (CAKI-1; [9]): > 100 µM
TGI (CAKI-1; read-out: pTGI): > 100 µM
GI50 (SN12C; read-out: GI50): 13.1 µM
CC50 (SN12C; [8]): > 100 µM
TGI (SN12C; read-out: TGI): > 100 µM
GI50 (SN12C; read-out: pGI50 (converted)): 13.2 µM
CC50 (SN12C; [9]): > 100 µM
TGI (SN12C; read-out: pTGI): > 100 µM
GI50 (TK-10; read-out: GI50): 9.46 µM
CC50 (TK-10; [8]): > 100 µM
TGI (TK-10; read-out: TGI): 51 µM
GI50 (TK-10; read-out: pGI50 (converted)): 9.55 µM
CC50 (TK-10; [9]): > 100 µM
TGI (TK-10; read-out: pTGI (converted)): 51.3 µM
GI50 ([7]; read-out: GI50): 13.5 µM
CC50 [7, 8]: > 100 µM
TGI ([7]; read-out: TGI): > 100 µM
GI50 ([7]; read-out: pGI50 (converted)): 13.5 µM
CC50 [7, 9]: > 100 µM
TGI ([7]; read-out: pTGI): > 100 µM
GI50 (MCF7; read-out: GI50): 3.45 µM
CC50 (MCF7; [8]): > 100 µM
TGI (MCF7; read-out: TGI): > 100 µM
GI50 (MCF7; read-out: pGI50 (converted)): 3.47 µM
CC50 (MCF7; [9]): > 100 µM
TGI (MCF7; read-out: pTGI): > 100 µM
